Test results published in ChEMBL document CHEMBL1201862, “PubChem BioAssay data set” (2004).
Active and inactive are the calls of the source.

Columns and labels:
[1] = system: INS1; test: beta cell apoptosis inhibitors, cytokine rescue, dose response, luminescence, retest (AID 449756); format: functional, cell-based; settings: Rattus norvegicus;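 further: cell death triggered by IL-1 beta plus TNF-alpha plus IFN-gamma mixture; protective hits raise ATP signal compared with cytokine alone wells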
[2] = cytotoxicity in HEK-293T cells, dose response, cytotoxicity control for TCR NF-kB inhibitor project, luminescence, T-cell screen hits (AID 489026); format: functional, cell-based;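 further: cells exposed to compound about 14 hours before the viability readout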
[3] = biological target: Cytochrome P450 3A4 (Homo sapiens, UniProt P08684);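 further: CYP3A4 tested as one member of a cytochrome P450 panel screen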
Chain of Cytochrome P450 3A4 (P08684 whole entry): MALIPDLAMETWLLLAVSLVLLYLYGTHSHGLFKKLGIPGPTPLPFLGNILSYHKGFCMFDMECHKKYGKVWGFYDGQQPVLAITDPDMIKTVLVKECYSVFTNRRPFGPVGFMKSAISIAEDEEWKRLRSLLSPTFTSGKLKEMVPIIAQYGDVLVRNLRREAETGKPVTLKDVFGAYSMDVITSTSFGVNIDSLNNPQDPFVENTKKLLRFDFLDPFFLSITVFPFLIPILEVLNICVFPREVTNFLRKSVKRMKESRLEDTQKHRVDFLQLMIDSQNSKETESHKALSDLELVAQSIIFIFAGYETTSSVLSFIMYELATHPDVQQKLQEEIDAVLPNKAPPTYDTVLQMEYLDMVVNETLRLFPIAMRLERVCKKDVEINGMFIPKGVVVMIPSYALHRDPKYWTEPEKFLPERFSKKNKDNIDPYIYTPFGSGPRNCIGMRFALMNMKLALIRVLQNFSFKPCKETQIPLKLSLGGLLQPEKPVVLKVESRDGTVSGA

[4] = biological target: T1, Protein RecA (Mycobacterium tuberculosis, UniProt P9WHJ3); test: Fluorescence Cell-Free Homogeneous Dose Retest to Identify Inhibitors of RecA-Intein Splicing Activity. [Related pubchem assays (depositor defined):AID2097, AID2223, AID489010, AID492950]; format: functional
T1 sequence (P9WHJ3 whole entry): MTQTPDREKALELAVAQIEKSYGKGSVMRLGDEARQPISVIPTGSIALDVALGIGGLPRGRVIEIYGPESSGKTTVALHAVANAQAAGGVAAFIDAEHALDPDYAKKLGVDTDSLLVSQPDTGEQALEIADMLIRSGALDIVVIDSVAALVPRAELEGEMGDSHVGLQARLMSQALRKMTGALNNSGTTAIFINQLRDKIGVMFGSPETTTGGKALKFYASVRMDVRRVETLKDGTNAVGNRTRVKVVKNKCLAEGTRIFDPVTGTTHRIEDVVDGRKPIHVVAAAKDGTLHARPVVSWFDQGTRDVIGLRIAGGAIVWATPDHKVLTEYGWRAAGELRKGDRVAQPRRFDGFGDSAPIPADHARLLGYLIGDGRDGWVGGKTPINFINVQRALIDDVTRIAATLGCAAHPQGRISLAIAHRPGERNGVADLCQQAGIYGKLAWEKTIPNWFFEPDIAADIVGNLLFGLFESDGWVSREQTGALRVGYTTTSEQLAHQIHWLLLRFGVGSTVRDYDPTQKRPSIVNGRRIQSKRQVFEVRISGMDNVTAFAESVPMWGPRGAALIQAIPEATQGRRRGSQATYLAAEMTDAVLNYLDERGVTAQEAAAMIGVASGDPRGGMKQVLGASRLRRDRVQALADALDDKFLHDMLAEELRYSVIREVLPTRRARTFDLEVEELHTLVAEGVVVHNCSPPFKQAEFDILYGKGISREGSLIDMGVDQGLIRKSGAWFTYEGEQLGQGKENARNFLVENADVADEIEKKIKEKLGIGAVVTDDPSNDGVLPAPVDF

[5] = biological target: T2, Replicative DNA helicase DnaB (Mycobacterium tuberculosis, UniProt P9WMR3); test: DnaB intein splicing inhibitors, dose response, biochemical, cell-free fluorescence (AID 449749); format: functional
T2 sequence (P9WMR3 whole entry): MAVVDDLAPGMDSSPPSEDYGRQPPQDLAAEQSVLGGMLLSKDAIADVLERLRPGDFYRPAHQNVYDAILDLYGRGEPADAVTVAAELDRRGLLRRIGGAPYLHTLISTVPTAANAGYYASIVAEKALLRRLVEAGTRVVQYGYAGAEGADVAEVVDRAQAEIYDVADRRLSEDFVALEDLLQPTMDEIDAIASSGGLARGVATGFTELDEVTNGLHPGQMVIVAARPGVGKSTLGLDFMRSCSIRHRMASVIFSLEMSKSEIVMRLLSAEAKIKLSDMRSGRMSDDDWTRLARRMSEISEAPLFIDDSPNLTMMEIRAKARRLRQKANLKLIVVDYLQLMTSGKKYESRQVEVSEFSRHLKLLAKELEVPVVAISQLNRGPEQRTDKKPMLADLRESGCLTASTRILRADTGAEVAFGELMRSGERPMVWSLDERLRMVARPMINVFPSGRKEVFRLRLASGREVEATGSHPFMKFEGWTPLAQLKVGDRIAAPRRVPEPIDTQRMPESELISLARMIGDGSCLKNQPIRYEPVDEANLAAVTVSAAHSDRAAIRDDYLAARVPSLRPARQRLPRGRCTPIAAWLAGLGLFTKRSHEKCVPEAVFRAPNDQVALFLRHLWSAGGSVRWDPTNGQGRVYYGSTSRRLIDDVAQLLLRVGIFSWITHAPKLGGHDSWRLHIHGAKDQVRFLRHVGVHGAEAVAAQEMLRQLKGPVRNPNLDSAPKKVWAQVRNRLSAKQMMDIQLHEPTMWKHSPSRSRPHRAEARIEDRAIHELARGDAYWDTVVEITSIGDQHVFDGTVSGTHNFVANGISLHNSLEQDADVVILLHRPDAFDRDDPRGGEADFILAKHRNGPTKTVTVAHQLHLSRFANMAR

[6] = biological target: Cytochrome P450 2C9 (Homo sapiens, UniProt P11712)
Chain of Cytochrome P450 2C9 (P11712 whole entry, the tested form may be a part): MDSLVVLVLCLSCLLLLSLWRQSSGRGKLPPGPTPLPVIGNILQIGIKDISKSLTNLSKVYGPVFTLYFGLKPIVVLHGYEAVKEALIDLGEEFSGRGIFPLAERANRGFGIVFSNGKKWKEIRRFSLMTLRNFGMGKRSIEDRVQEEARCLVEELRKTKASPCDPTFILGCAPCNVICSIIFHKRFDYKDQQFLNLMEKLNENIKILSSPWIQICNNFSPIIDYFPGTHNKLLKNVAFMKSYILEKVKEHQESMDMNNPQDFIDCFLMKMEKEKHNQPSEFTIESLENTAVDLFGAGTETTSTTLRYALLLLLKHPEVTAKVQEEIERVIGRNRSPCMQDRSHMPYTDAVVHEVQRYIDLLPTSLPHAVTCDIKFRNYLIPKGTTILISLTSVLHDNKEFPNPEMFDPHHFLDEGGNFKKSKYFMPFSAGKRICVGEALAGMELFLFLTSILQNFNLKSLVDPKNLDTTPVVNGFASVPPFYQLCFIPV

[7] = biological target: T3, Carboxy-terminal domain RNA polymerase II polypeptide A small phosphatase 1 (Homo sapiens, UniProt Q9GZU7); test: inhibitors of CTDSP1, concentration-response testing, biochemical assay, absorbance-based, actives from ultra-high-throughput screening (AID 540297); format: functional
T3 sequence (Q9GZU7 whole entry): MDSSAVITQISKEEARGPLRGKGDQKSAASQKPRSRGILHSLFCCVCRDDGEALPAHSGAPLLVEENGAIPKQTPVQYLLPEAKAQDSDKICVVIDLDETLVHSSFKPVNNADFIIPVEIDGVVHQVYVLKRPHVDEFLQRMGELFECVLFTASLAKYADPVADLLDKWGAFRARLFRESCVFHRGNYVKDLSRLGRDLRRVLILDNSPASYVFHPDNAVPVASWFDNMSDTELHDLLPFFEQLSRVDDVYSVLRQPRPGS

[8] = cells; format: functional, cell-based
[9] = cells; format: functional, cell-based; remark: listed apart in the source
[10] = biological target: FAD-linked sulfhydryl oxidase ALR (Homo sapiens, UniProt P55789); test: inhibitors of human ALR sulfhydryl oxidase, dose response, biochemical, H2O2 detection, luminescence, cherry-pick (AID 493248)
Chain of FAD-linked sulfhydryl oxidase ALR (P55789 whole entry, the tested form may be a part): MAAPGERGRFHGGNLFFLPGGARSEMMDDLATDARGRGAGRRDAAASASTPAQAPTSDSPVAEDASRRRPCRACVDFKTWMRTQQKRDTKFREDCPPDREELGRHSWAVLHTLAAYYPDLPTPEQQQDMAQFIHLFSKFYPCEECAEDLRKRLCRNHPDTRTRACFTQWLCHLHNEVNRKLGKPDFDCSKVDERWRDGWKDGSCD

[11] = inhibitors of clade B AD8 Env fusion, dose response, cell-based, cherry-pick (AID 652062); format: functional;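 further: luciferase signal from cell-cell fusion driven by HIV-1 clade B AD8 Env; potency is for inhibitors of fusion seen as a drop in luminescence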
[12] = inhibitors of HIV Env-driven cell fusion, dose response, cherry-pick (AID 652057); format: functional, cell-based
[13] = biological target: T4, RNA-binding protein pos-1 (Caenorhabditis elegans, UniProt G5EF15); test: inhibitors of POS-1/mex-3 RNA binding, dose response, biochemical, fluorescence polarization (AID 1964);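 further: purified POS-1 fused to maltose binding protein made in E. coli; potency of compounds blocking POS-1 binding to fluorescent RNA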
T4 sequence (G5EF15 whole entry): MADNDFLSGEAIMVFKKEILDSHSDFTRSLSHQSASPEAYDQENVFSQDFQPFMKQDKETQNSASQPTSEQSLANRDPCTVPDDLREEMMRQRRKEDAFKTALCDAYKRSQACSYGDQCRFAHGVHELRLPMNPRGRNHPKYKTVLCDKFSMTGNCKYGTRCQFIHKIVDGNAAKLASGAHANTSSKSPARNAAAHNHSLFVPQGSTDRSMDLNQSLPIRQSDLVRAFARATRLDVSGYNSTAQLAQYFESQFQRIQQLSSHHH

[14] = biological target: T5, Zinc finger protein mex-5 (Caenorhabditis elegans, UniProt Q9XUB2); test: MEX-5/TCR-2 RNA interaction inhibitors, dose response, biochemical, C. elegans, fluorescence polarization (AID 1960)
T5 sequence (Q9XUB2 whole entry): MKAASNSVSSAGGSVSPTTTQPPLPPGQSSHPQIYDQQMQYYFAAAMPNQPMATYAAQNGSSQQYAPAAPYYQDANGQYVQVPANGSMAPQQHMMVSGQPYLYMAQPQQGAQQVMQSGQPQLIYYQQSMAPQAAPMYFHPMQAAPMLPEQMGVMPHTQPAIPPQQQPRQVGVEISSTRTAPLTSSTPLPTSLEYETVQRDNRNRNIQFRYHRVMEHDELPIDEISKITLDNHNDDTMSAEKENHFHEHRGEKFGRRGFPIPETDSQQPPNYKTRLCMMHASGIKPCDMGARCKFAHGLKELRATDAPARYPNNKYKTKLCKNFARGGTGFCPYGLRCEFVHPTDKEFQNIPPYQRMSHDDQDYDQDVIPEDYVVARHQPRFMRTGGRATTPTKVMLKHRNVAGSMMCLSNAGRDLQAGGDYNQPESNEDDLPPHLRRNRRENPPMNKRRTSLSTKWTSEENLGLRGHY

[15] = NIH-3T3 fibroblast cytotoxicity, dose response, cytotoxicity control, cell-based, fluorescence, Alamar Blue, secondary assay (AID 2327); format: functional;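 further: NIH-3T3 mouse fibroblasts cultured with fluconazole at 8 µg/mL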
[16] = C. albicans growth with fluconazole, confirmation, fluorescence, retest (AID 2467); format: functional, cell-based

Question: What does the source list for `Cn1ncc2c(N3CCN(c4ccc(Cl)c(Cl)c4)CC3)ncnc21`?
Answer: AC50 [1]: 2.55 µM (active); IC50 [2]: > 80 µM (inactive)

Question: With `O=C1CCN(S(=O)(=O)c2ccccc2)N1` as the compound, how does the AC50 [3] read?
Answer: 28.2 µM (inconclusive)

Question: What about the EC50 [4] of the same compound?
Answer: 3.73 µM (active)

Question: What about the AC50 [5] of the same compound?
Answer: 31.2 µM (active)

Question: And the AC50 [6]?
Answer: 12.6 µM (inconclusive)

Question: Which IC50 [7] does the source give for `NN1C(=O)/C(=C2/Sc3ccccc3N2CCCS(=O)(=O)O)SC1=S` here?
Answer: 8.53 µM (active)

Question: With `COc1ccc(CCNC(=O)c2nnn(CC(=O)Nc3c(C)cc(C)cc3C)c2N)cc1OC` as the compound, how does the EC50 [8] read?
Answer: > 350 µM (not active)

Question: What about the EC50 [9] of the same compound?
Answer: > 350 µM (not active)

Question: For `CC(C)c1ccc(S(=O)(=O)Nc2ccc(O)c(Sc3nc[nH]n3)c2)cc1`, which AC50 [10] is on record?
Answer: 1.49 µM (active)

Question: Which AC50 [10] does the source give for `CN(C)Cc1ccccc1Sc1ccc(O)cc1O` here?
Answer: 1.78 µM (active)

Question: With `Cc1ccc(C2C(C#N)=C(N)Oc3[nH]nc(C)c32)cc1` (centres undefined) as the compound, how does the EC50 [4] read?
Answer: 3.56 µM (active)

Question: What about the AC50 [5] of the same compound?
Answer: 7.89 µM (active)

Question: Which IC50 [7] does the source give for `COC(=O)C1=C(COc2ccccc2)NC(=O)NC1c1ccc2ccccc2c1` (centres undefined) here?
Answer: 13.8 µM (active)

Question: Which AC50 [11] does the source give for `COc1ccc(S(=O)(=O)N(C)C[C@@H]2Oc3ccc(NC(=O)Nc4ccc5c(c4)OCO5)cc3C(=O)N([C@H](C)CO)C[C@@H]2C)cc1` here?
Answer: 3.09 µM (active)

Question: What about the AC50 [12] of the same compound?
Answer: 2.3 µM (active)

Question: What does the source list for `Cc1ccccc1NC(=O)CN1C(=O)S/C(=C\c2cccn2-c2cccc(C(=O)O)c2)C1=O`?
Answer: EC50 [13]: > 300 µM (not active); EC50 [14]: > 300 µM (not active); IC50 [7]: 4.23 µM (active)

Question: With `COc1cccc(/C=N/NC(=O)c2nc(-c3ccccc3)cc(-c3ccccc3)n2)c1O` as the compound, how does the EC50 [15] read?
Answer: > 150 µM (inactive)

Question: What about the EC50 [8] of the same compound?
Answer: 86.6 µM (active)

Question: And the EC50 [16]?
Answer: 1.54 µM (active)

Question: What about the EC50 [9] of the same compound?
Answer: 12.8 µM (active)

Question: With `O=C(N/N=C/c1ccccn1)c1cc(-c2ccc(Br)s2)n[nH]1` as the compound, how does the IC50 [7] read?
Answer: 8.5 µM (active)

Question: For `COc1ccc(NCC(=O)N/N=C/C2CCCCC2)cc1`, which AC50 [10] is on record?
Answer: 4.57 µM (active)

Question: Which IC50 [7] does the source give for `CCc1ccc(OCc2cccc(C(=O)N/N=C\c3cnn(C)c3C)c2)cc1` here?
Answer: 9.07 µM (active)

Question: What does the source list for `Cc1cccc(C)c1NC(=O)CN1C(=O)S/C(=C\c2cccn2-c2cccc(C(=O)O)c2)C1=O`?
Answer: EC50 [13]: > 300 µM (not active); EC50 [14]: 60 µM (active); IC50 [7]: 6.71 µM (active)
